# In patent publication US20120115878A1, “SALT(S) OF 7-CYCLOPENTYL-2-(5-PIPERAZIN-1-YL-PYRIDIN-2-YLAMINO)-7H-PYRROLO[2,3-D]PYRIMIDINE-6-CARBOXYLIC ACID DIMETHYLAMIDE AND PROCESSES OF MAKING THEREOF” (priority 2010, published 2012):
# Experiments:
# [1] = Physical form characterization (XRPD, DSC, TGA) after DVS exposure to 90% RH; format: physicochemical
# [2] = Dynamic Vapor Sorption (DVS) isotherm, 0-80-0% RH cycle; format: physicochemical; settings: for Change In Mass (%) Desorption / Change In Mass (%) Hysteresis: 0-80-0% RH cycle, Cycle 1
# [3] = Dynamic Vapor Sorption (DVS) isotherm, 0-90-0% RH cycle, two cycles; format: physicochemical
# [4] = Physical form characterization (XRPD) after DVS exposure to 80% RH
structure (smiles),measurement,setting,value
"CN(C)C(=O)c1cc2cnc(Nc3ccc(N4CCNCC4)cn3)nc2n1C1CCCC1.O=C(O)CCC(=O)O [Compound of Formula (II), 7-Cyclopentyl-N,N-dimethyl-2-(5-(piperazin-1-yl)pyridin-2-ylamino)-7H-pyrrolo[2,3-d]pyrimidine-6-carboxamide succinate]",physical form upon exposure to 90% RH,"[1]; XRPD, DSC, TGA after DVS 0-90-0% RH",change in physical form
same,weight loss at endothermic transition,"[1]; around 100° C., after exposure to 90% RH",3%
same,converted from the non-hydrate form to hydrate form,[1]; at 90% RH,about 7.35%
same,Change In Mass (%) Desorption,[2]; target RH 0.0%,0.0434%
same,Change In Mass (%) Desorption,[2]; target RH 10.0%,0.2958%
same,Change In Mass (%) Hysteresis,[2]; target RH 10.0%,0.0871%
same,Change In Mass (%) Desorption,[2]; target RH 20.0%,0.3436%
same,Change In Mass (%) Hysteresis,[2]; target RH 20.0%,0.0708%
same,Change In Mass (%) Desorption,[2]; target RH 30.0%,0.3806%
same,Change In Mass (%) Desorption,[2]; target RH 40.0%,0.4037%
same,Change In Mass (%) Hysteresis,[2]; target RH 40.0%,0.0133%
same,Change In Mass (%) Desorption,[2]; target RH 50.0%,0.4311%
same,Change In Mass (%) Hysteresis,[2]; target RH 50.0%,0.0074%
same,Change In Mass (%) Desorption,[2]; target RH 60.0%,0.4614%
same,Change In Mass (%) Hysteresis,[2]; target RH 60.0%,0.0140%
same,Change In Mass (%) Desorption,[2]; target RH 70.0%,0.4952%
same,Change In Mass (%) Hysteresis,[2]; target RH 70.0%,0.0159%
same,Change In Mass (%) Desorption,[2]; target RH 80.0%,0.5200%
same,moisture absorbed,[2]; at 80% RH (0 to 80 to 0% RH),up to 0.5%
same,hygroscopic behavior,[2]; printed 'at 80° C.' (0 to 80 to 0% RH cycle),nearly non-hygroscopic behavior
same,moisture absorbed,[3]; at 90% RH in each cycle (0 to 90 to 0% RH),up to 2%
same,hygroscopic behavior,[3]; at high humidity conditions (90% RH),slight hygroscopic behavior
same,physical form upon exposure to 80% RH,[4]; XRPD after DVS 0-80-0% RH,stability of the physical form
same,converted from the non-hydrate form to hydrate form,[4]; at 80% RH,about 0.52%
"CN(C)C(=O)c1cc2cnc(Nc3ccc(N4CCNCC4)cn3)nc2n1C1CCCC1.O=C(O)CCC(=O)O [non-hydrate form, succinate salt of 7-Cyclopentyl-2-(5-piperazin-1-yl-pyridin-2-ylamino)-7H-pyrrolo[2,3-d]pyrimidine-6-carboxylic acid dimethylamide]",hygroscopicity,[2]; general statement,non-hygroscopicity
same,stability,[4]; general statement,good stability
